The values that follow come from patent US11008612B2, “Methods and apparatus for single molecule sequencing using energy transfer detection” (Life Technologies Corporation, priority 2009, dated 2021).

Data set [1] is described as follows: solubility of core nanoparticles in solvents.
Source text: The solubility of the aliquoted samples was observed. […] Six of the aliquoted samples were centrifuged and the resulting clear, colorless supernatants were discarded.
The test system of data set [2] is [enzyme⋅DNA⋅labeled nucleotide] ternary complex (AF647-C6-dG6P). As to the kind of experiment: Stopped-flow measurements of t−1 (nucleotide dissociation from ternary complex). Format: binding. Conditions: ternary complex mixed with 50 μM cognate non-labeled dNTP, 2 mM MnCl2; t−1 = 1/k−1. How it is done:
The rate of the nucleotide dissociation (k−1) from the ternary complex of [enzyme⋅DNA⋅nucleotide] was measured in an Applied Photophysics SX20 stopped-flow spectrometer by monitoring changes […] a duplex Alexa fluor 546 dye-labeled-DNA template following the mixing of the [enzyme⋅DNA⋅labeled nucleotide] ternary complex with 50 μM cognate non-labeled deoxynucleoside triphosphate in a buffer containing 50 mM Tris-HCl (pH 7.5), 50 mM NaCl, 4 mM DTT, 0.2% BSA, and 2 mM MnCl2.
The ternary complexes were prepared using: 330 nM polymerase, 100 nM template/primer duplex, and 7 μM terminal phosphate-labeled nucleotides (AF647-C6-dG6P).
The averaged stopped-flow fluorescence traces (>1.5 msec) were fitted with a single exponential equation (2) to extrapolate the rate of the nucleotide dissociation (k−1) from the [enzyme⋅DNA⋅nucleotide] ternary complex. Fluorescence=A1*e^−k^−1^*t+C (equation 2) where A1 represents the corresponding fluorescence amplitude, C is an offset constant, and k−1 and the observed rate constants for the fluorescence transition. The stopped-flow techniques for measuring t−1 (1/k−1) followed the techniques described by M. Bakhtina (2009 Biochemistry 48:3197-3208).

Data set [3] concerns duplex Alexa fluor 546 dye-labeled-DNA template and AF647-C6-dG6P. As to the kind of experiment: Stopped-flow measurements of tpol (nucleotide incorporation kinetics). The conditions noted are these: 330 nM polymerase, 100 nM template/primer duplex, 7 μM AF647-C6-dG6P, 2 mM MnCl2; tpol = 1/kpol. The class given is biochemical. How it is done: The kinetics of nucleotide incorporation by B103 (exo-) (SEQ ID NO:5) and an H370R mutant (SEQ ID NO:3) DNA polymerases were measured in an Applied Photophysics SX20 stopped-flow spectrometer by monitoring changes in fluorescence from a duplex Alexa fluor 546 dye-labeled-DNA template following the mixing of the enzyme-DNA complex with dye-labeled nucleotides (AF647-C6-dG6P) in the reaction buffer containing 50 mM Tris-HCl, pH 7.5, 50 mM NaCl, 4 mM DTT, 0.2% BSA, and 2 mM MnCl2. The reactions included 330 nM recombinant DNA polymerase, 100 nM template/primer duplex, and 7 μM labeled nucleotides.
The averaged (5 traces) stopped-flow fluorescence traces (>1.5 ms) were fitted with a double exponential equation (1) to extrapolate the rates of the nucleotide binding and product release, Fluorescence=A1*e^−k^1^*t+A2*e^−k^pol^*t+C (equation 1) where A1 and A2 represent corresponding fluorescence amplitudes, C is an offset constant, and k1 and kpol are the observed rate constants for the fast and slow phases of the fluorescence transition, respectively. The dye-labeled nucleotides comprise terminal-phosphate-labeled nucleotides having an alkyl linker with a functional amine group attached to the dye. The stopped-flow techniques for measuring tpol (1/kpol) followed the techniques described by M P Roettger (2008 Biochemistry 47:9718-9727; M. Bakhtina 2009 Biochemistry 48:3197-320). 2) B103 Polymerase: Stopped-Flow Measurements of t−1

For data set [4], the system named is template. As to the kind of experiment: template extension activity (DNA extension assay). The class given is biochemical. The conditions noted are these: stock unconjugated polymerase. The method, then: A 150 nM master mix solution of a labeled hairpin oligonucleotide 221 was prepared by diluting the appropriate quantity of a 50 μM stock solution with extension buffer (50 mM TRIS, pH 8, 50 mM NaCl, 10 mM MgCl2). 450 μl of a master mix was prepared for each sample being tested.
The conjugate being tested was diluted in 450 μl of the master mix such that the final concentration of the conjugate is in the range of 10 nM to 50 nM. The positive control samples of free PKAΦ29 were similarly diluted. The sample solution was deposited in four microtiter plate wells, at 100 μl/well.
The microtiter plate was placed in a plate reader (Molecular Devices, SpectraMax M5) and set up to monitor the fluorescence as function of time (excitation 490 nm, emission 535 nm, cutoff filter 515 nm). Just prior to starting the plate reader, 2 μl of 1 mM dATP was added to each of two microtiter wells to start the extension reaction. The other two microtiter wells with sample represent no extension controls. The plate was read for an hour or until the samples reached saturation. […]

Take `CCOC(=O)CCCCCP(=O)(O)O` [6-ethoxy-6-oxohexylphosphonic acid]: the solubility in solvents entry in data set [1] is reported as “not soluble in hexane”.

Take “B103 (exo-): B103 (exo-) DNA polymerase (SEQ ID NO:5)”: the “t−1” value in data set [2] is 16. Moreover, in data set [3], the tpol amounted to 14.

Take “H370R: H370R mutant B103 DNA polymerase (SEQ ID NO:3)”: the “t−1” value in data set [2] worked out at 43. The compound also returned a tpol in data set [3] of 17.

As to “K509Y: B103 polymerase with amino acid substitution K509Y”, the “t−1” value in data set [2] amounted to 20. Further, in data set [3], the tpol is on record as 10.

“stock HP1-B104-H370R (exo-) polymerase: stock His-tagged HP1-B103 H370R exo- polymerase (SEQ ID NO:3)”: the DNA extension assay in data set [4] was determined as 0.29 base/sec/enzyme.
